Measurements as given in patent US12570655B2, “Cysteine covalent modifiers of AKT1 and uses thereof” (Terremoto Biosciences, Inc., priority 2023, dated 2026).
pIC50: −log10 of the molar value. Read-outs that look alike come from different tables or passages of the source.

Legend:
[1] = target: T1, AKT1 E17K (Homo sapiens, UniProt P31749, E17K); assay: Live cell AKT1 E17K target engagement by NanoBRET competitive probe displacement; assay type: cell-based; settings: HEK293 cells transfected with kinase-NanoLuciferase fusion, 2 h at 37° C.
T1 construct: expressed in transfected cells; host or cells: HEK293
Description: Determining Live Cell AKT1 E17K, AKT1 WT, and AKT2 Target Engagement by NanoBRET Competitive Probe Displacement.
Live cell target engagement assays were performed as described (Vasta, J. D. et al. Cell Chem Biol 2018, 25(11), 206-214). Briefly, HEK293 cells were transfected with plasmids encoding kinase-NanoLuciferase fusion proteins overnight. Cells were then treated with serial dilutions of compound and an ˜EC50 concentration of fluorescently-tagged ATP-competitive tracer (Promega). After incubation for 2 h at 37° C., luciferase substrate and extracellular luciferase inhibitor were added to all wells, and luminescent intensity at 460 nm and 600 nm were measured on a multimode plate-reader. The ratio of E600/E460 was calculated to give the tracer engagement signal (BRET). IC50 values were calculated by fitting BRET values to a log(inhibitor) vs. response Hill equation.

[2] = system: LAPC4 prostate cancer cells; assay: Antiproliferative effects in LAPC4 cells (CellTiter Glo); assay type: cell-based; settings: LAPC4 cells (AKT1 E17K allele), read-out: LAPC4 proliferation IC50
Description: Antiproliferative Effects in LAPC4 Cells.
LAPC4 prostate cancer cells (Klein, K. A. et al. Nat Med 1997, 3, 402-408), which express the AKT1 E17K allele, were grown in IMDM media (Hyclone) supplemented with 12% FBS+1% P/S. To assess compound effects on growth, 1,000 cells/well were seeded in 384 well assay plates, incubated with compound dilutions dissolved in DMSO. After 72 h, intracellular ATP content was assessed with CellTiter Glo reagent (Promega) according to the manufacturer's instructions. IC50 values were calculated by fitting luminescence values to a log(inhibitor) vs. response Hill equation.

T1 sequence (P31749 whole entry E17K, the tested form may be a part): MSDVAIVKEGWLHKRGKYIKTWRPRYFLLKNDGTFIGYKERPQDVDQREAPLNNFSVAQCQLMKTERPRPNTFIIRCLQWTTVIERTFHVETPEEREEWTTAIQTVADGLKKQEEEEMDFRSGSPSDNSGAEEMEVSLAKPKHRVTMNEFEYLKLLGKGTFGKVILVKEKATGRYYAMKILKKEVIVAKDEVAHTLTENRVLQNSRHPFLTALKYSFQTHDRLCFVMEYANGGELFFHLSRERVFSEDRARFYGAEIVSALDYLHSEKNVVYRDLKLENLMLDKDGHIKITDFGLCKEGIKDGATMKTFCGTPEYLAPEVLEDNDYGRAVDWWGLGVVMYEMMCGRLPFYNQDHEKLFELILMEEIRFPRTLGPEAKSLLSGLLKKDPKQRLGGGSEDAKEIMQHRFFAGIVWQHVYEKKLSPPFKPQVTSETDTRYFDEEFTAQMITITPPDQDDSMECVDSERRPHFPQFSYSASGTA

Row | pIC50 [1] | pIC50 ([2]; Homo sapiens, LAPC4, 72 h) | pIC50 ([2]; 72 h) | SMILES
1 | 8.48 | 8.36 | – | C=CC(=O)N1Cc2cccc(C(=O)N[C@H]3CCc4cc(-n5c(-c6cccnc6N)nc6ccc(-n7cccn7)nc65)ccc43)c2C1 [Example 266, (S)-2-acryloyl-N-(5-(2-(2-aminopyridin-3-yl)-5-(1H-pyrazol-1-yl)-3H-imidazo[4,5-b]pyridin-3-yl)-2,3-dihydro-1H-inden-1-yl)isoindoline-4-carboxamide]
2 | 6.77 | 5.80 | – | C=CC(=O)N1CCC(N[C@H]2CCc3cc(-n4c(-c5cccnc5N)nc5ccc(C6COC6)nc54)ccc32)CC1 [Example 279, 1-(4-{[(1S)-5-[2-(2-aminopyridin-3-yl)-5-(oxetan-3-yl)imidazo[4,5-b]pyridin-3-yl]-2,3-dihydro-1H-inden-1-yl]amino}piperidin-1-yl)prop-2-en-1-one]
3 | < 6.00 | – | < 5.00 | C=CC(=O)N1CC(F)C(N[C@H]2CCc3cc(-n4c(-c5cccnc5N)nc5ccc(-n6cccn6)nc54)ccc32)C(F)C1 (single isomer, unassigned) [Example 222, 1-((3*,5*)-4-(((S)-5-(2-(2-aminopyridin-3-yl)-5-(1H-pyrazol-1-yl)-3H-imidazo[4,5-b]pyridin-3-yl)-2,3-dihydro-1H-inden-1-yl)amino)-3,5-difluoropiperidin-1-yl)prop-2-en-1-one]
4 | 8.64 | 7.77 | – | C=CC(=O)N1CCC(N[C@H]2CCc3cc(-n4c(-c5cccnc5N)nc5ccc(-c6ccccc6)nc54)ccc32)CC1 [Example 209, (S)-1-(4-((5-(2-(2-aminopyridin-3-yl)-5-phenyl-3H-imidazo[4,5-b]pyridin-3-yl)-2,3-dihydro-1H-inden-1-yl)amino)piperidin-1-yl)prop-2-en-1-one]
5 | 6.42 | < 5.00 | – | C=CC(=O)N1CC(F)C(N[C@H]2CCc3cc(-n4c(-c5cccnc5N)nc5ccc(-n6cccn6)nc54)ccc32)C(F)C1 (single isomer, unassigned) [Example 220, 1-((3*,4*,5*)-4-(((S)-5-(2-(2-aminopyridin-3-yl)-5-(1H-pyrazol-1-yl)-3H-imidazo[4,5-b]pyridin-3-yl)-2,3-dihydro-1H-inden-1-yl)amino)-3,5-difluoropiperidin-1-yl)prop-2-en-1-one]
6 | 6.25 | – | < 5.00 | C=CC(=O)N1CC(F)C(N[C@H]2CCc3cc(-n4c(-c5cccnc5N)nc5ccc(-n6cccn6)nc54)ccc32)C(F)C1 (single isomer, unassigned) [Example 221, 1-((3*,4*,5*)-4-(((S)-5-(2-(2-aminopyridin-3-yl)-5-(1H-pyrazol-1-yl)-3H-imidazo[4,5-b]pyridin-3-yl)-2,3-dihydro-1H-inden-1-yl)amino)-3,5-difluoropiperidin-1-yl)prop-2-en-1-one]
7 | < 6.00 | – | < 5.00 | C=CC(=O)N1CC(F)C(N[C@H]2CCc3cc(-n4c(-c5cccnc5N)nc5ccc(-n6cccn6)nc54)ccc32)C(F)C1 (single isomer, unassigned) [Example 223, 1-((3*,5*)-4-(((S)-5-(2-(2-aminopyridin-3-yl)-5-(1H-pyrazol-1-yl)-3H-imidazo[4,5-b]pyridin-3-yl)-2,3-dihydro-1H-inden-1-yl)amino)-3,5-difluoropiperidin-1-yl)prop-2-en-1-one]
8 | 7.10 | – | – | C=CC(=O)N1CCC(N[C@@H]2c3c(F)cc(-n4c(-c5cccnc5N)nc5ccc(-n6cccn6)nc54)cc3CC2F)CC1 (single isomer, unassigned) [Example 341, 1-(4-(((1R,2*)-5-(2-(2-aminopyridin-3-yl)-5-(1H-pyrazol-1-yl)-3H-imidazo[4,5-b]pyridin-3-yl)-2,7-difluoro-2,3-dihydro-1H-inden-1-yl)amino)piperidin-1-yl)prop-2-en-1-one]
9 | < 6.00 | – | 5.18 | C=CC(=O)N1C[C@H]2COC[C@@H](C1)C2N[C@H]1CCc2cc(-n3c(-c4cccnc4N)nc4ccc(C5CC5)nc43)ccc21 (single isomer, unassigned) [Example 171, 1-((1R,5S,9*)-9-(((S)-5-(2-(2-aminopyridin-3-yl)-5-cyclopropyl-3H-imidazo[4,5-b]pyridin-3-yl)-2,3-dihydro-1H-inden-1-yl)amino)-3-oxa-7-azabicyclo[3.3.1]nonan-7-yl)prop-2-en-1-one]
10 | 8.34 | – | 7.37 | C=CC(=O)N1CCC(N[C@H]2CCc3cc(-n4c(-c5cccnc5N)nc5ccc(-n6cccn6)nc54)ccc32)C[C@H]1C(F)F (single isomer, unassigned) [Example 215, 1-((2S,4*)-4-(((S)-5-(2-(2-aminopyridin-3-yl)-5-(1H-pyrazol-1-yl)-3H-imidazo[4,5-b]pyridin-3-yl)-2,3-dihydro-1H-inden-1-yl)amino)-2-(difluoromethyl)piperidin-1-yl)prop-2-en-1-one]
11 | 6.82 | – | 5.50 | C=CC(=O)N1CCC(N[C@@H]2c3ccc(-n4c(-c5cccnc5N)nc5ccc(-n6cccn6)nc54)cc3CC2C)CC1 (single isomer, unassigned) [Example 182, 1-(4-(((1S,2*)-5-(2-(2-aminopyridin-3-yl)-5-(1H-pyrazol-1-yl)-3H-imidazo[4,5-b]pyridin-3-yl)-2-methyl-2,3-dihydro-1H-inden-1-yl)amino)piperidin-1-yl)prop-2-en-1-one]
12 | 6.56 | 5.14 | – | C=CC(=O)N1CCC(N[C@H]2CCc3cc(-n4c(-c5ccccc5C#N)nc5ccc(-n6cccn6)nc54)ccc32)CC1 [Example 284, 2-{3-[(1S)-1-{[1-(prop-2-enoyl)piperidin-4-yl]amino}-2,3-dihydro-1H-inden-5-yl]-5-(pyrazol-1-yl)imidazo[4,5-b]pyridin-2-yl}benzonitrile]
13 | 6.95 | 5.51 | – | C=CC(=O)N1CCC(N[C@@H]2c3ccc(-n4c(-c5cccnc5N)nc5ccc(C6CC6)nc54)cc3CC2F)CC1 (single isomer, unassigned) [Example 202, 1-(4-(((1R,2*)-5-(2-(2-aminopyridin-3-yl)-5-cyclopropyl-3H-imidazo[4,5-b]pyridin-3-yl)-2-fluoro-2,3-dihydro-1H-inden-1-yl)amino)piperidin-1-yl)prop-2-en-1-one]
14 | 6.22 | 5.81 | – | C=CC(=O)N1CCC(N[C@H]2CCc3cc(-n4c(-c5ccccc5C(F)F)nc5ccc(-n6cccn6)nc54)ccc32)CC1 [Example 285, (S)-1-(4-((5-(2-(2-(difluoromethyl)phenyl)-5-(1H-pyrazol-1-yl)-3H-imidazo[4,5-b]pyridin-3-yl)-2,3-dihydro-1H-inden-1-yl)amino)piperidin-1-yl)prop-2-en-1-one]
15 | 7.20 | 5.56 | – | C=CC(=O)N1CCC(N[C@H]2CC(F)(F)c3cc(-n4c(-c5cccnc5N)nc5ccc(-n6cccn6)nc54)ccc32)CC1 [Example 305, (S)-1-(4-((5-(2-(2-aminopyridin-3-yl)-5-(1H-pyrazol-1-yl)-3H-imidazo[4,5-b]pyridin-3-yl)-3,3-difluoro-2,3-dihydro-1H-inden-1-yl)amino)piperidin-1-yl)prop-2-en-1-one]
16 | < 6.00 | < 5.00 | – | C=CC(=O)N1CCC(N[C@H]2CCc3cc(-n4c(C5CC5)nc5ccc(-n6cccn6)nc54)ccc32)CC1 [Example 248, (S)-1-(4-((5-(2-cyclopropyl-5-(1H-pyrazol-1-yl)-3H-imidazo[4,5-b]-430-pyridine-3-yl)-2,3-dihydro-1H-inden-1-yl)amino)piperidin-1-yl)prop-2-en-1-one]
17 | 6.54 | 5.42 | – | C=CC(=O)N1CCN(C2CCc3cc(-n4c(-c5cccnc5N)nc5ccc(-n6cccn6)nc54)ccc32)CC1 (stereo not shown) [Example 204, 1-(4-{5-[2-(2-aminopyridin-3-yl)-5-(pyrazol-1-yl)imidazo[4,5-b]pyridin-3-yl]-2,3-dihydro-1H-inden-1-yl}piperazin-1-yl)prop-2-en-1-one]
18 | 7.43 | 6.32 | – | C=CC(=O)N1CCCC(c2cn([C@H]3CCc4cc(-n5c(-c6cccnc6N)nc6ccc(-n7cccn7)nc65)ccc43)nn2)C1 (single isomer, unassigned) [Example 167, 1-((*)-3-(1-((S)-5-(2-(2-aminopyridin-3-yl)-5-(1H-pyrazol-1-yl)-3H-imidazo[4,5-b]pyridin-3-yl)-2,3-dihydro-1H-inden-1-yl)-1H-1,2,3-triazol-4-yl)piperidin-1-yl)prop-2-en-1-one]

Row | SMILES | pIC50 [1] | pIC50 ([2]; Homo sapiens, LAPC4, 72 h) | pIC50 ([2]; 72 h)
19 | C=CC(=O)N1CCC(N[C@H]2CCc3cc(-n4c(-c5cccnc5N)nc5ccc(N6C7CCC6COC7)nc54)ccc32)CC1 [Example 278, 1-(4-{[(1S)-5-[2-(2-aminopyridin-3-yl)-5-{3-oxa-8-azabicyclo[3.2.1]octan-8-yl}imidazo[4,5-b]pyridin-3-yl]-2,3-dihydro-1H-inden-1-yl]amino}piperidin-1-yl)prop-2-en-1-one] | 6.79 | 5.73 | –
